In publication PMC3568244 (Molecular and cellular endocrinology, 2012):
Read-outs that look alike come from different tables or passages of the source.

Assays:
Assay in all cases: spectral binding titration
[1] = biological target: T1, CYP11A1 (Bos taurus, UniProt P00189)
T1 sequence (P00189 40-520): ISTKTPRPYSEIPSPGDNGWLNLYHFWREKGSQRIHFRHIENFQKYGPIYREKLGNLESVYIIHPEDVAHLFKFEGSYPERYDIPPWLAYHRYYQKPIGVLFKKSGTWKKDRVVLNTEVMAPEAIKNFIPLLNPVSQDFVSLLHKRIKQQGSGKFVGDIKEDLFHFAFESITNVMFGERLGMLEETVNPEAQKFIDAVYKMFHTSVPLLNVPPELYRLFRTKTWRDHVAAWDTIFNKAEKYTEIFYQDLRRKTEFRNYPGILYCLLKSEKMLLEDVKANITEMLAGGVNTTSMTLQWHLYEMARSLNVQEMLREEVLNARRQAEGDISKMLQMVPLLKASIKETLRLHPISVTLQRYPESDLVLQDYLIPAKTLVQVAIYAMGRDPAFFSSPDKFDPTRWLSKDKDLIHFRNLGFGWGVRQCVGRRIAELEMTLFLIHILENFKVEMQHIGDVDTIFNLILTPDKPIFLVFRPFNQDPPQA

[2] = biological target: T1, CYP11A1; remark: listed apart in the source
[3] = biological target: T1, CYP11A1; remark: listed apart in the source

| SMILES | Kd [2] [nM] | Kd [3] [nM] | further results |
| --- | --- | --- | --- |
| CC(C)CCC[C@@H](C)[C@H]1CC[C@H]2[C@@H]3CC=C4C[C@@H](O)CC[C@]4(C)[C@H]3CC[C@]12C [cholesterol] |  |  | Kd [1]: 200 nM |
| NC(=NCc1ccc(Cl)cc1)SCCCc1cnc[nH]1 [Clobenpropit] | 18000 |  |  |
| CC(=O)N1CCN(c2ccc(OC[C@H]3CO[C@@](Cn4ccnc4)(c4ccc(Cl)cc4Cl)O3)cc2)CC1 (racemic) [Ketoconazole] |  | 1500 |  |
| Cc1cccc([C@H](C)c2cnc[nH]2)c1C [Dexmedetomidine] | 7000 |  |  |
| CC[C@@H]([C@H](C)O)n1ncn(-c2ccc(N3CCN(c4ccc(OC[C@@H]5CO[C@@](Cn6cncn6)(c6ccc(F)cc6F)C5)cc4)CC3)cc2)c1=O [Posaconazole] |  | 1000 |  |
